One molecule from EP0297815B1, “Fluorine containing renin inhibitors” (PFIZER INC., priority 1987, dated 1989) can be followed below.

The experiment concerns the target T1, renin (Homo sapiens, UniProt P00797).
T1 sequence (P00797 67-406): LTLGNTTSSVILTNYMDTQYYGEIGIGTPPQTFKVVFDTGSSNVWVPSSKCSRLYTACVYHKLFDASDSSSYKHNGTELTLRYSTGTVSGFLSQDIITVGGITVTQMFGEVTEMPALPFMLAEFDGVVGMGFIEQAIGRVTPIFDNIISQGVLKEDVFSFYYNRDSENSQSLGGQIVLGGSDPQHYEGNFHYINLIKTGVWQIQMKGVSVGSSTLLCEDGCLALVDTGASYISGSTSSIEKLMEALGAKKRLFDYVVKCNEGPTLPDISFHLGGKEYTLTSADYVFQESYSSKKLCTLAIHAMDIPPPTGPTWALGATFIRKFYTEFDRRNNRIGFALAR
Nature of the experiment: renin inhibitory potency. The format is biochemical. The conditions noted are these: compared with the more retained 2R,5R isomer separated by HPLC. An excerpt:
The activity of the compounds of the present invention as inhibitors of the angiotensinogen-cleaving activity of renin may be determined by studying (1) their ability to inhibit the angiotensinogen-cleaving activity of renin in vitro and (2) their ability to antagonize the exogenous renin-induced pressor response in vivo.

In the case of `CCCC[C@H](NC(=O)[C@H](Cc1ccccc1)NC(=O)N1CCOCC1)C(=O)N[C@@H](CC1CCCCC1)C(=O)C(F)(F)[C@@H](CC(C)C)C(=O)OCC` [2S,5S product, ethyl (2S,5S)-2-isobutyl-3,3-difluoro-4-keto-5-N-(N-[morpholinocarbonyl-L-phenylalanyl]-L-norleucyl)-amino-6-cyclohexylhexanoate], the renin inhibitory potency result is given as “more active”.
